Laboratory results published in publication PMC10568017, “A quest for the stereo-electronic requirements for selective agonism for the neurotrophin receptors TrkA and TrkB in 17-spirocyclic-dehydroepiandrosterone derivatives” (Frontiers in Molecular Neuroscience, 2023).

How the values were obtained:
[1] = target: T1, TrkB (Mus musculus, UniProt P15209); test: TrkB phosphorylation assay in primary astrocytes (Western blot); type: cell-based; details: compound 1 μM, 20 min, after 6 h serum starvation, BDNF 500 ng/mL as control
T1 construct: primary cortical astrocytes from 2-day-old mice (as a natively TrkB-expressing neuronal population); endogenous in cells; host or cells: primary cortical astrocytes from C57B/6 mouse pups (P2)
T1 sequence (P15209 32-821): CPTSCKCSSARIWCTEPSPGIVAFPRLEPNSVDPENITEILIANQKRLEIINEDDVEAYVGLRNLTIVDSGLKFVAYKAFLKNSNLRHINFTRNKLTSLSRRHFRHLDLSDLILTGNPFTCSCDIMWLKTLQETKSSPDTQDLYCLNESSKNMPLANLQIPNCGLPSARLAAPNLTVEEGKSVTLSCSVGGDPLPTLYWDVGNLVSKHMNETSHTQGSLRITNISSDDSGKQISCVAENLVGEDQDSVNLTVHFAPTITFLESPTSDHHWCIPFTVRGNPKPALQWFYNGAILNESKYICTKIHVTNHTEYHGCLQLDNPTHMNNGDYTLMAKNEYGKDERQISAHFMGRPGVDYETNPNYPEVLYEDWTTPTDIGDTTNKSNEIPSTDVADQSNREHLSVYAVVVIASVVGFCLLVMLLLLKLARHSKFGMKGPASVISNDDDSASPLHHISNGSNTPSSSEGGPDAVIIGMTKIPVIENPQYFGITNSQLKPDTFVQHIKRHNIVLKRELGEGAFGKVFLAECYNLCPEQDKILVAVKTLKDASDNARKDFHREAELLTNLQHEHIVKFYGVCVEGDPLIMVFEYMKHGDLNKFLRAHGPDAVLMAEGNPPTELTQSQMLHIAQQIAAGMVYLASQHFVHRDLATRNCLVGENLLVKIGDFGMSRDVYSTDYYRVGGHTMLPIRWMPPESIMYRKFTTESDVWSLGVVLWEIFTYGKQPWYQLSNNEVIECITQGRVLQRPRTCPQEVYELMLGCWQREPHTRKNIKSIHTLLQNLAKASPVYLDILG
Experimental: We tested compounds on three cellular systems, primary cortical astrocytes from 2-day-old mice (as a natively TrkB-expressing neuronal population), and NIH-3T3 fibroblasts stable transfected with TrkB and NIH-3T3 naïve cells. Cells were grown with high-glucose DMEM medium supplemented with 10% fetal bovine serum (FBS), 100 μg/mL streptomycin, and 100 units/mL penicillin at 37°C in a humidified 5% CO2 atmosphere. Phosphorylation results presented here are in primary astrocytes, and cell toxicity assay results are in NIH-3T3 stable transfected cells with TrkB.
Cells were plated in 12 well plates, at a density of 100,000 cells per well, with 6 h of serum deprivation carried out on the following day. To assess the effect of compounds on TrkB phosphorylation, 20-min treatments were applied, using either BDNF at 500 ng/mL (Peprotech 450-02) (positive control) or compounds at 1 μM.
Cell lysis for 10 min was carried out on ice using the Pierce IP Lysis Buffer by Thermo Scientific and a phospho-protease inhibitor cocktail by Millipore. After adding loading buffer (5 × Laemni), 25 μg from each protein sample were incubated for 5 min at 95°C and subjected to SDS-PAGE. Proteins were transferred to a nitrocellulose membrane at 350 mA for 2 h. Membrane blocking was performed using 5% bovine serum albumin (BSA) at room temperature for 1 h, before adding the primary antibodies to the blocking solution at 4°C overnight. HRP-conjugated secondary antibodies were used for the detection of chemiluminescence with ECL solution. Primary antibodies: Phospho-TrkB (Tyr816) Millipore # ABN1381, and Anti-TrkB Abcam #ab33655.
Mixed glial cultures were isolated from the cortex of C57B/6 pups at post-natal day 2 (P2). Cells were plated in a medium containing high-glucose DMEM, 200 U/mL penicillin, 200 μg/mL streptomycin, and 10% fetal bovine serum (FBS). When cells reach 100% confluency (7–8 days), the anti-mitotic agent Ara-C was added in the media at a final concentration of 10 μM, for 3 to 4 days to target the highly proliferative microglial cells. Ara-C was removed, and primary astrocytes (97% purity) were cultured at 5% CO2 and 37°C.
Cells were plated at 70–80% confluency. The next day, they were deprived of serum for 6 h and subsequently treated with 500 ng/mL BDNF or 1 μM of compounds for 20 min. Cells were then lysed in Pierce™ IP Lysis Buffer (87788, Thermo Fischer Scientific, Rockford, USA), containing proteases (539138, Calbiochem, Darmstadt, Germany), and phosphatase inhibitors (524629, Calbiochem, Darmstadt, Germany). Lysates were then suspended in an SDS loading buffer and subjected to Western blot against phosphorylated TrkB (1:1,000, ABN1381, Sigma-Aldrich, St. Louis, MO, USA) and total TrkB (1:1,000, 07-225-I, Sigma-Aldrich, St. Louis, MO, USA).

[2] = Metabolic stability in pooled human liver microsomes; type: in vitro ADME; details: 1 μM
In short: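 Test compounds at 1 µM incubated in triplicate with pooled human liver microsomes (0.5 mg/mL) and ~1 mM NADPH at 37 °C, stopped after 60 min. Parent loss classed very slow (<5%) to very fast (>80%); metabolism rated high, moderate or low by t1/2 cut-offs of 30 and 60 min.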

[3] = target: T2, CYP2C9 (Homo sapiens, UniProt P11712); test: Isozyme-specific CYP450 inhibition, CYP2C9; type: in vitro ADME; details: 1 μM, 60 min, recombinant human CYP450 (Baculosomes)
T2 construct: purchased Thermo Fisher Scientific; host or cells: Baculosomes
T2 sequence (P11712 whole entry): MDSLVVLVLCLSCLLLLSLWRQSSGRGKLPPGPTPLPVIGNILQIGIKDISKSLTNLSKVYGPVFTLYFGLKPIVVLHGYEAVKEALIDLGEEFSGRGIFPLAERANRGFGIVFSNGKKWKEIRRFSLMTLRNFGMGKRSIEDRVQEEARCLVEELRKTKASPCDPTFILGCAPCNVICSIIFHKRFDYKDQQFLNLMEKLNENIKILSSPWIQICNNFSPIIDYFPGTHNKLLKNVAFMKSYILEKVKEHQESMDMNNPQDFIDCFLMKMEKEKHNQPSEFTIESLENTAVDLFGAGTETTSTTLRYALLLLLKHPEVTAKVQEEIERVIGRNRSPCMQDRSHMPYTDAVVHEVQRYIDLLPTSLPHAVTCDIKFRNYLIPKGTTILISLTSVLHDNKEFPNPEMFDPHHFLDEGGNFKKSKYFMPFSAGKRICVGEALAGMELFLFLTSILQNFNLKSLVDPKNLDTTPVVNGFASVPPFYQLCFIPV
Experimental: Human cytochrome P450 (CYP450) isoenzymes were expressed in Baculosomes®, purchased from Thermo Fisher Scientific (Waltham, MA, USA). All reagents were handled and prepared according to the manufacturer's protocol. Test compounds were assessed at 1 μM for their effects on CYP1A2, CYP2A6, CYP2C9, CYP2C19, CYP2D6, and CYP3A4. Approximately 1 μM was selected based on our ADMET standard operating procedures and protocols also published previously (Rogdakis et al., [2022]; Yilmaz et al., [2022]). CYP450-enzymatic activity was determined based on the kinetic model for each CYP450 isoform (Cohen et al., [2003]; Veith et al., [2009]). Reactions took place in triplicates at 20°C. For this, NADP^+ (10 mM in 100 mM potassium phosphate, pH 8.0) was converted into NADPH by the regeneration system present (glucose-6-phosphate at 333 mM and glucose-6-phosphate-dehydrogenase at 30 U/mL in 100 mM potassium phosphate, pH 8.0). Following the addition of the fluorescent substrate, signal monitoring over time took place immediately (<2 min) at suitable excitation and emission wavelengths (Agilent BioTek Lionheart FX). CYP450 inhibition (%) was determined based on the reaction rates (fluorescence intensity changes per unit time). In total, n = 60 measurements […] were acquired (t = 60 min).
% Inhibition=(1-X/A)×100%
X is the rate observed in the presence of the test compound.
A is the rate observed in the presence of the negative (solvent, DMSO) control.

C[C@]12CC[C@H](O)CC1=CC[C@@H]1[C@@H]2CC[C@@]2(C)[C@H]1CC[C@@]21CC=C(Cn2cc(Cc3ccccc3)nn2)CO1 [ENT-A055, (3S,17R)-5′-[(4-benzyl-1H-1,2,3-triazol-1-yl)methyl]-3′,6′-dihydrospiro[5-androstene-17,2′-pyran]-3-ol]
phosphorylation levels of the TrkB receptor [1]: successfully increased phosphorylation levels of the TrkB receptor compared to the untreated control | residual of time zero ([2]; pooled human liver microsomes 0.5 mg/mL, t = 60 min, NADPH): > 95% | parent structure loss (depletion) class ([2]; pooled human liver microsomes, 60 min): very slow (very slow (<5%)) | inhibition for CYP2C9 [3]: moderate-to-strong inhibition
